Source: US20160177259A1, “[…]” (Evonik Degussa GmbH, priority 2014, published 2016)

What was measured:
[1] = test system: Clostridium ljungdahlii; assay: Example 1 redone at shaking speed 100 min-1 (Example 1b); type: cell-based
Description: (§1) For the production, anaerobic carbonate buffer (adjusted with KOH 1.4 g/L) was used. The only addition to the buffer was L-cysteine HCl at different concentrations.
(§2) For identical autotrophic productions, 500 mL septum bottles were filled with 100 mL carbonate buffer and shaken at 150 min^−1 in an open shaking water bath shaker Innova 3100 by New Brunswick Scientific. The reactions were carried out at 37° C. with manual control of the pH. Once the pH dropped below 5.5, KOH was replenished from a stock solution of 140 g/L. In the present experiments the pH in both reactors were checked at the following points in time 50.3 h, 73.3 h and corrected by the addition of each 1.4 g/L KOH manually.
(§3) The reactors were inoculated with a synthesis gas mixture of 67% H2 and 33% CO2 and pressure of 0.8 bar applied. To replenish the depleted gas, the gas above the reactors was replaced once a day and again the pressure brought to 0.8 bars.
(§4) The reactor was started by seeding autotrophic grown cells at an OD of 0.2. The preculture was carried out continuously in a 1 L bottle with 500 mL complex medium. The complex medium consisting of 1 g/lNH4Cl, 0.1 g/l KCl, 0.2 g/l MgSO4 ×7 H2O, 0.8 g/l NaCl, 0.1 g/l KH2PO4, 20 mg/l CaCl2 ×2 H2O, 20 g/l MES, 1 g/l yeast extract, 0.4 g/L L-Cysteine-HC1, 20 mg/l nitrilotriacetic acid, 10 mg/l MnSO4×H2O, 8 mg/l (NH4)2Fe(SO4)2×6 H2O, 2 mg/l CoCl2×6 H2O, 2 mg/l ZnSO4 33 7 H2O, 0.2 mg/l CuCl 2 33 2 H2O, 0.2 mg/l Na2MoO4×2 H2O, 0.2 mg/l NiCl2×6 H2O, 0.2 mg/l Na2SeO4, 0.2 mg/l Na2WO4×2 H2O, 20 μg/l d-Biotin, 20 μg/l folic acid, 100 μg/l pyridoxine HCl, 50μg/l thiamine-HCl×H2O, 50 μg l of riboflavin, 50 μg/l nicotinic acid, 50 μg/l Ca-pantothenate, 1 μg/l vitamin B12, 50μg/l p-aminobenzoate, 50 μg/l lipoic acid. The culture was then gassed continuously with synthesis gas (67% H2, 33% CO2) at a flow rate of 3 l/h over a filter with pore size 10 microns. The cells were in late log phase growth at an OD of 0.37 and where anaerobically centrifuged (4500 rpm, 4300 g, 20° C., 10 min). The supernatant was discarded and the cell pellet resuspended in 10 ml carbonate buffer. The prepared cells were then used to inoculate the actual tests.
(§5) When sampling each 5 ml sample was removed for determination of OD600, pH and the product spectrum. The determination of the product concentration was performed using quantitative 1H-NMR spectroscopy. As an internal quantification standard sodium trimethylsilylpropionate was used (T(M)SP).
The example 1 above was redone with only a difference in the shaking speed on the septum bottles for autotrophic productions. The shaking speed used was 100 min^−1.
A reporting error in example 1 was noticed where the results of cysteine for reactor 1 and 2 were switched.

[2] = test system: Clostridium ljungdahlii; assay: Autotrophic production of ethanol and acetate in carbonate buffer on synthesis gas with varying L-cysteine HCl (Example 1); type: cell-based
Description: as §1, §2, §3, §4, §5

[3] = reactor 1, 0.1 g/L L-Cysteine-HCl, 100 min-1, 0.0 h
[4] = reactor 1, 0.1 g/L L-Cysteine-HCl, 100 min-1, 24.5 h
[5] = reactor 1, 0.1 g/L L-Cysteine-HCl, 100 min-1, 50.3 h
[6] = reactor 1, 0.1 g/L L-Cysteine-HCl, 100 min-1, 73.3 h
[7] = reactor 1, 0.1 g/L L-Cysteine-HCl, 100 min-1, 92.3 h
[8] = reactor 2, 0.4 g/L L-Cysteine-HCl, 100 min-1, 0.0 h
[9] = reactor 2, 0.4 g/L L-Cysteine-HCl, 100 min-1, 24.5 h
[10] = reactor 2, 0.4 g/L L-Cysteine-HCl, 100 min-1, 50.3 h
[11] = reactor 2, 0.4 g/L L-Cysteine-HCl, 100 min-1, 73.3 h
[12] = reactor 2, 0.4 g/L L-Cysteine-HCl, 100 min-1, 92.3 h
[13] = reactor 1, 0.1 g/L L-Cysteine-HCl, 150 min-1, 0.0 h
[14] = reactor 1, 0.1 g/L L-Cysteine-HCl, 150 min-1, 24.5 h
[15] = reactor 1, 0.1 g/L L-Cysteine-HCl, 150 min-1, 50.3 h
[16] = reactor 1, 0.1 g/L L-Cysteine-HCl, 150 min-1, 73.3 h
[17] = reactor 1, 0.1 g/L L-Cysteine-HCl, 150 min-1, 92.3 h
[18] = reactor 2, 0.4 g/L L-Cysteine-HCl, 150 min-1, 0.0 h
[19] = reactor 2, 0.4 g/L L-Cysteine-HCl, 150 min-1, 24.5 h
[20] = reactor 2, 0.4 g/L L-Cysteine-HCl, 150 min-1, 50.3 h
[21] = reactor 2, 0.4 g/L L-Cysteine-HCl, 150 min-1, 73.3 h
[22] = reactor 2, 0.4 g/L L-Cysteine-HCl, 150 min-1, 92.3 h

## Cl.N[C@@H](CS)C(=O)O [L-Cysteine-HCl, L-cysteine hydrochloride]
[1]; [3]
  Acetate (NMR): 13 mg/L
  Ethanol (NMR): 6 mg/L
  OD600: 0.25
[1]; [4]
  Acetate (NMR): 1418 mg/L
  Ethanol (NMR): 19 mg/L
  OD600: 0.25
  Δp: 0.6 bar
[1]; [5]
  Acetate (NMR): 2556 mg/L
  Ethanol (NMR): 130 mg/L
  OD600: 0.30
  Δp: 0.6 bar
[1]; [6]
  OD600: 0.30
  Δp: 0.6 bar
[1]; [7]
  Acetate (NMR): 6960 mg/L
  Ethanol (NMR): 321 mg/L
  OD600: 0.26
  Δp: 0.4 bar
[1]; [8]
  Acetate (NMR): 15 mg/L
  Ethanol (NMR): 8 mg/L
  OD600: 0.24
[1]; [9]
  Acetate (NMR): 2331 mg/L
  Ethanol (NMR): 27 mg/L
  OD600: 0.23
  Δp: 0.6 bar
[1]; [10]
  Acetate (NMR): 3197 mg/L
  Ethanol (NMR): 128 mg/L
  OD600: 0.26
  Δp: 0.5 bar
[1]; [11]
  OD600: 0.22
  Δp: 0.3 bar
[1]; [12]
  Acetate (NMR): 5067 mg/L
  Ethanol (NMR): 150 mg/L
  OD600: 0.22
  Δp: 0.3 bar
[2]; 0.1 g/L compared with 0.4 g/L L-cysteine-HCl, after 92.3 h
  concentrations of ethanol and acetate: higher
[2]; [13]
  Acetate (NMR): 13 mg/L
  Ethanol (NMR): 6 mg/L
  OD600: 0.25
[2]; [14]
  Acetate (NMR): 1418 mg/L
  Ethanol (NMR): 19 mg/L
  OD600: 0.25
  Δp: 0.6 bar
[2]; [15]
  Acetate (NMR): 2556 mg/L
  Ethanol (NMR): 130 mg/L
  OD600: 0.30
  Δp: 0.6 bar
[2]; [16]
  OD600: 0.30
  Δp: 0.6 bar
[2]; [17]
  Acetate (NMR): 6960 mg/L
  Ethanol (NMR): 321 mg/L
  OD600: 0.26
  Δp: 0.4 bar
[2]; reactor 1 with 0.1 g/L compared with reactor with 0.4 g/L L-cysteine-HCl, over 92.3 h
  total gas consumption: higher
[2]; [18]
  Acetate (NMR): 15 mg/L
  Ethanol (NMR): 8 mg/L
  OD600: 0.24
[2]; [19]
  Acetate (NMR): 2331 mg/L
  Ethanol (NMR): 27 mg/L
  OD600: 0.23
  Δp: 0.6 bar
[2]; [20]
  Acetate (NMR): 3197 mg/L
  Ethanol (NMR): 128 mg/L
  OD600: 0.26
  Δp: 0.5 bar
[2]; [21]
  OD600: 0.22
  Δp: 0.3 bar
[2]; [22]
  Acetate (NMR): 5067 mg/L
  Ethanol (NMR): 150 mg/L
  OD600: 0.22
  Δp: 0.3 bar
